Experimental data reported in patent CN102066974A, “用于蛋白、肽和其他分子的f-18标记的改进方法和组合物” (Immunomedics Inc, priority 2008, dated 2011).
Values joined by “and” are separate entries in the source; they are usually repeats but may differ in a detail not shown here. Equal entries are not always repeated. Numbered stars: 1 amine (or outer) side, 2 acyl side, 3 side chain; on linkers, the order of the positions; unused ones are H or OH. Square brackets hold non-standard residues; d marks the D form. Side chains are listed from the residue outwards. Peptide text beside a SMILES is read from it. * marks the point of attachment. NOTA(2S-Bn(4-NHCS)) = O=C(O)CN1CCN(CC(=O)O)C[C@H](Cc2ccc(NC(=S)*)cc2)N(CC(=O)O)CC1; X1 = O=C(O)CN1CCN(CC(=O)O)CC(Cc2ccc(NC(=S)*)cc2)N(CC(=O)O)CC1; DOTA = O=C(O)CN1CCN(CC(=O)O)CCN(CC(=O)*)CCN(CC(=O)O)CC1; DTPA = O=C(O)CN(CCN(CC(=O)O)CC(=O)O)CCN(CC(=O)O)CC(=O)*; NH(2-(imidazol-4-yl)ethyl) = c1ncc(CCN*)[nH]1; NOTA = O=C(O)CN1CCN(CC(=O)O)CCN(CC(=O)*)CC1; X2 = N[C@H](CC(=O)*)c1ccccc1Br; Suc = O=C(CCC(=O)[*:2])[*:1]; Dap = NC[C@H](N)C(=O)O; Aoc = NCCCCCCCC(=O)O

Assays:
AR42J肿瘤 = test: Biodistribution in BALB/c nude mice with s.c. AR42J tumours; format: in vivo, mouse; conditions: 2 h p.i.
[1] = Biodistribution of unbound 18F fraction and purified [Al18F]IMP 449 in SCID mice, no pretargeting; format: in vivo, mouse; conditions: 1 h p.i., no bsMAb
CaPan1异种移植物 = test: TF10-pretargeted biodistribution in nude mice with CaPan1 xenografts; format: in vivo, mouse; conditions: 1 h after peptide, TF10 (162μg) pretargeted 18 h before
LS174 T异种移植物 = test: Biodistribution of 111In-IMP 449 and [Al18F]IMP 449 with or without TF2 in nude mice with sc LS174T xenografts; format: in vivo, mouse; conditions: 1 h after peptide
LS174T肿瘤 [2] = test: TF2-pretargeted biodistribution in BALB/c nude mice with s.c. LS174T tumours (Example 27)
RIIα二聚体 = RIIα二聚体 (Homo sapiens, UniProt P13861); conditions: Stokka et al. 2006; cited from earlier work
Chain of RIIα二聚体 (P13861 whole entry): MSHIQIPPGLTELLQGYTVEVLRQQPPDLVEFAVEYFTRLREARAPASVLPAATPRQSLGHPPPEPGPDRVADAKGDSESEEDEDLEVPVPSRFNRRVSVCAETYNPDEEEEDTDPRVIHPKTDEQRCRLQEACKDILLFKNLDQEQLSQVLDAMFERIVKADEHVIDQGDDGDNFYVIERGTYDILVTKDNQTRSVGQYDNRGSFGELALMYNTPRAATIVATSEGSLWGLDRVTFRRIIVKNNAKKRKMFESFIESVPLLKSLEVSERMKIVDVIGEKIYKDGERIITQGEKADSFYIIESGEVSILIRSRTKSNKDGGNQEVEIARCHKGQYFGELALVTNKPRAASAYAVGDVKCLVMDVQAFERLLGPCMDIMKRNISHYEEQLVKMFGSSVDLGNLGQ

[3] = Stability of labelled peptide in human serum at 37℃, HPLC; format: in vitro ADME; conditions: for activity still attached to peptide: crude 18F labelling mixture (35% bound at start), pooled human serum 37℃; for 18F-labelled peptide stable in serum: purified 18F-labelled peptide
[4] = Stability of Al18F-peptide complex in water (peptide labelling screen); format: physicochemical
PC-3细胞 = format: binding; conditions: first experiment, inhibitor 56 to 0.44 nM
H1和H2组胺受体 = test: In vitro study on cell lines bearing H1 and H2 histamine receptors; format: cell-based
[5] = in vivo
LS174T肿瘤 [6] = test: PET/CT image quantification (region of interest ratios); conditions: mouse, in vivo

Compound: C[C@@H](O)[C@@H]1NC(=O)[C@H](CCCCN)NC(=O)[C@@H](Cc2c[nH]c3ccccc23)NC(=O)[C@H](Cc2ccccc2)NC(=O)[C@@H](NC(=O)[C@@H](Cc2ccccc2)NC(=O)CN2CCN(CC(=O)O)CCN(CC(=O)O)CC2)CSSC[C@@H](C(=O)N[C@H](CO)[C@@H](C)O)NC1=O [68Ga-IMP 466, metal not drawn]
- AR42J tumour uptake (AR42J肿瘤): 29.2±0.5 %ID/g
- kidney retention (AR42J肿瘤): 16.2±2.86 %ID/g
- lung uptake (AR42J肿瘤): 4.0±0.9 %ID/g

Compound: C[C@@H](NC(=S)Nc1ccc(C[C@H]2CN(CC(=O)O)CCN(CC(=O)O)CCN2CC(=O)O)cc1)C(=O)N[C@H](CCCCNC(=O)CNC(=O)CCC(=O)NCCc1c[nH]cn1)C(=O)N[C@H](Cc1ccc(O)cc1)C(=O)N[C@H](CCCCNC(=O)CNC(=O)CCC(=O)NCCc1c[nH]cn1)C(N)=O [[Al18F]IMP 449] ({NOTA(2S-Bn(4-NHCS))}-[dA][dK]([Gly-Suc-NH(2-(imidazol-4-yl)ethyl)])[dY][dK]([Gly-Suc-NH(2-(imidazol-4-yl)ethyl)])-NH2)
- 大肠 (large intestine) uptake, individual animals [1]: 0.167 %ID/g and 0.091 %ID/g and 0.094 %ID/g and 0.109 %ID/g
- 大肠 (large intestine) uptake, mean [1]: 0.115 %ID/g
- 小肠 (small intestine) uptake, individual animals [1]: 1.124 %ID/g and 1.247 %ID/g and 1.166 %ID/g and 1.624 %ID/g
- 小肠 (small intestine) uptake, mean [1]: 1.290 %ID/g
- 肌肉 (muscle) uptake, individual animals [1]: 0.077 %ID/g and 0.075 %ID/g
- 脊骨 (spine) uptake, individual animals [1]: 0.268 %ID/g
- CaPan1 tumour uptake (CaPan1异种移植物): 4.6±0.9 %ID/g
- 小肠 (small intestine) uptake, individual animals (LS174 T异种移植物; TF2 163.2μg 16 h before): 0.185 %ID/g
- 肌肉 (muscle) uptake, individual animals (LS174 T异种移植物; TF2 163.2μg 16 h before): 0.064 %ID/g
- 肝 (liver) uptake, individual animals (LS174 T异种移植物; TF2 163.2μg 16 h before): 0.196 %ID/g and 0.180 %ID/g
- 肝 (liver) uptake, mean (LS174 T异种移植物; TF2 163.2μg 16 h before): 0.172 %ID/g
- 股骨 (femur) uptake, mean (LS174 T异种移植物; TF2 163.2μg 16 h before): 0.625 %ID/g
- 肺 (lung) uptake, individual animals (LS174 T异种移植物; TF2 163.2μg 16 h before): 0.474 %ID/g and 0.230 %ID/g
- 胃 (stomach) uptake, mean (LS174 T异种移植物; TF2 163.2μg 16 h before): 0.218 %ID/g
- 脾 (spleen) uptake, individual animals (LS174 T异种移植物; TF2 163.2μg 16 h before): 0.239 %ID/g and 0.118 %ID/g and 0.140 %ID/g
- 大肠 (large intestine) uptake, individual animals (LS174 T异种移植物; no pretargeting antibody): 0.118 %ID/g
- 大肠 (large intestine) uptake, mean (LS174 T异种移植物; no pretargeting antibody): 0.072 %ID/g
- 肝 (liver) uptake, individual animals (LS174 T异种移植物; no pretargeting antibody): 0.141 %ID/g (2×) and 0.200 %ID/g and 0.185 %ID/g
- 股骨 (femur) uptake, individual animals (LS174 T异种移植物; no pretargeting antibody): 0.080 %ID/g
- 股骨 (femur) uptake, mean (LS174 T异种移植物; no pretargeting antibody): 0.100 %ID/g
- 脑 (brain) uptake, individual animals (LS174 T异种移植物; no pretargeting antibody): 0.077 %ID/g
- 脾 (spleen) uptake, mean (LS174 T异种移植物; no pretargeting antibody): 0.118 %ID/g
- LS174T tumour uptake (LS174T肿瘤 [2]; 6.0 nmol TF2 16 h before, 0.25 nmol peptide): 10.6±1.7 %ID/g
- bone uptake (LS174T肿瘤 [2]; mouse, in vivo): 0.54±0.2 %ID/g

Compound: FEELAWKIAKMIWSDVFQQC [PV-38]
- PKA isoform preference (RIIα二聚体): 对RI更大的亲和力

Compound: NOTA-ITC苄基-D-Ala-D-Lys(HSG)-D-Tyr-D-Lys(HSG)-NH2 [IMP 449]
- activity still attached to peptide ([3]; 15 min): 9.8 %
- activity still attached to peptide ([3]; 1 h): 7.6 %
- decomposition of metal-18F-peptide complex ([3]; prepared with ascorbic acid as stabiliser, serum 37℃, 4 h): 没有可检测的分解
- 18F-labelled peptide stable in serum ([3]; human serum 37℃, at least 1 h): 91 %
- 18F-labelled peptide stable in serum ([3]; human serum 37℃, at least 4 h): 76 %

Compound: DLIEEAASRIVDAVIEQVKAAGAY [Ht-31]
- PKA isoform preference (RIIα二聚体): 对PKA的RII同种型更大的亲和力

Compound: C[C@@H](NC(=O)[C@H](CNC(=O)C[C@@H](N)c1ccccc1Br)NC(=O)CN(CCN(CCN(CC(=O)O)CC(=O)O)CC(=O)O)CC(=O)O)C(=O)N[C@H](CCCCNC(=O)CNC(=O)CCC(=O)NCCc1c[nH]cn1)C(=O)N[C@H](C)C(=O)N[C@H](CCCCNC(=O)CNC(=O)CCC(=O)NCCc1c[nH]cn1)C(N)=O [IMP 375, DTPA-Dpr(2-Br-Phe-CHNH2-CH2-CO-)-D-Ala-D-Lys(HSG)-D-Ala-D-Lys(HSG)-NH2] ({DTPA}-[Dap](X2)[dA][dK]([Gly-Suc-NH(2-(imidazol-4-yl)ethyl)])[dA][dK]([Gly-Suc-NH(2-(imidazol-4-yl)ethyl)])-NH2)
- stability of Al18F complex relative to IMP 272 [4]: 显著更稳定

Compound: CSCC[C@H](NC(=O)[C@H](CC(C)C)NC(=O)[C@H](Cc1c[nH]cn1)NC(=O)CNC(=O)[C@@H](NC(=O)[C@H](C)NC(=O)[C@H](Cc1c[nH]c2ccccc12)NC(=O)[C@@H](NC(=O)[C@H](Cc1c[nH]c2ccccc12)NC(=O)[C@H](CCC(N)=O)NC(=O)CCCCCCCNC(=O)CN1CCN(CC(=O)O)CCN(CC(=O)O)CC1)C(C)C)C(C)C)C(N)=O [IMP 468] ({NOTA-Aoc}-QWVWAVGHLM-NH2)
- blocking of 125I-BBN binding (PC-3细胞): 阻断125I-BBN的结合

Compound: DTPA-Dpr(DTPA)-D-Ala-D-Lys(HSG)-D-Ala-D-Lys(HSG)-NH2 [IMP 333]
- blocking of 125I-BBN binding (PC-3细胞): 不能

Compound: NC(=O)[C@@H](CCCCNC(=O)CNC(=O)CCC(=O)NCCc1c[nH]cn1)NC(=O)[C@@H](CCC(=O)O)NC(=O)[C@@H](CCCCNC(=O)CNC(=O)CCC(=O)NCCc1c[nH]cn1)NC(=O)[C@@H](Cc1ccc(O)cc1)NC(=O)CN1CCN(CC(=O)O)CCN(CC(=O)O)CCN(CC(=O)O)CC1 [111In-IMP 288, metal not drawn] ({DOTA}-[dY][dK]([Gly-Suc-NH(2-(imidazol-4-yl)ethyl)])[dE][dK]([Gly-Suc-NH(2-(imidazol-4-yl)ethyl)])-NH2)
- kidney uptake (LS174T肿瘤 [2]; 0.1 nmol peptide, independent of bsMAb dose): 2 %ID/g

Compound: DOTA-D-Tyr-D-Lys(HSG)-D-Glu-D-Lys(HSG)-NH2 [IMP 288]
- antagonist or agonist activity at histamine receptors (H1和H2组胺受体): 没有拮抗或激动活性
- histamine-related pharmacological activity in animals [5]: 没有与组胺组分相关的肽的药理活性

Compound: LEQYANQLADQIIKEATE [RIAD]
- PKA isoform preference (RIIα二聚体): 对RI更大的亲和力

Compound: C[C@@H](O)[C@@H]1NC(=O)[C@H](CCCCN)NC(=O)[C@@H](Cc2c[nH]c3ccccc23)NC(=O)[C@H](Cc2ccccc2)NC(=O)[C@@H](NC(=O)[C@@H](Cc2ccccc2)NC(=O)CN2CCN(CC(=O)O)CCN(CC(=O)O)CC2)CSSC[C@@H](C(=O)N[C@H](CO)[C@@H](C)O)NC1=O [Al18F-IMP 466]
- AR42J tumour uptake (AR42J肿瘤): 28.3±5.7 %ID/g
- blood level (AR42J肿瘤): 0.10±0.07 %ID/g
- bone uptake (AR42J肿瘤): 0.33±0.07 %ID/g
- kidney retention (AR42J肿瘤): 9.96±1.27 %ID/g
- lung uptake (AR42J肿瘤): 1.9±0.4 %ID/g
- tumour-blood ratio (AR42J肿瘤): 299±88
- AR42J tumour uptake with excess unlabelled IMP 466 (AR42J肿瘤; receptor blocking): 8.6±0.7 %ID/g

Compound: NC(=O)[C@@H](CCCCNC(=O)CNC(=O)CCC(=O)NCCc1c[nH]cn1)NC(=O)[C@@H](CCC(=O)O)NC(=O)[C@@H](CCCCNC(=O)CNC(=O)CCC(=O)NCCc1c[nH]cn1)NC(=O)[C@@H](Cc1ccc(O)cc1)NC(=O)CN1CCN(CC(=O)O)CCN(CC(=O)O)CCN(CC(=O)O)CC1 [68Ga-IMP 288, metal not drawn] ({DOTA}-[dY][dK]([Gly-Suc-NH(2-(imidazol-4-yl)ethyl)])[dE][dK]([Gly-Suc-NH(2-(imidazol-4-yl)ethyl)])-NH2)
- LS174T tumour uptake without TF2 pretargeting (LS174T肿瘤 [2]; 1 h p.i.): 0.20±0.03 %ID/g
- inflamed muscle-blood ratio (LS174T肿瘤 [2]; mouse, in vivo): 5.9±2.9
- tumour-inflamed muscle ratio (LS174T肿瘤 [2]; mouse, in vivo): 12.5±2.1
- inflamed muscle-background ratio in PET image (LS174T肿瘤 [6]): 8.9
- tumour-inflamed tissue ratio in PET image (LS174T肿瘤 [6]): 5.4

Compound: C[C@@H](NC(=S)Nc1ccc(CC2CN(CC(=O)O)CCN(CC(=O)O)CCN2CC(=O)O)cc1)C(=O)N[C@H](CCCCNC(=O)CNC(=O)CCC(=O)NCCc1c[nH]cn1)C(=O)N[C@H](Cc1ccc(O)cc1)C(=O)N[C@H](CCCCNC(=O)CNC(=O)CCC(=O)NCCc1c[nH]cn1)C(N)=O (stereo partly drawn) [111In-IMP 449, metal not drawn] (X1-[dA][dK]([Gly-Suc-NH(2-(imidazol-4-yl)ethyl)])[dY][dK]([Gly-Suc-NH(2-(imidazol-4-yl)ethyl)])-NH2)
- 大肠 (large intestine) uptake, individual animals (LS174 T异种移植物; no pretargeting antibody): 0.253 %ID/g
- 大肠 (large intestine) uptake, mean (LS174 T异种移植物; no pretargeting antibody): 0.237 %ID/g
- 胃 (stomach) uptake, individual animals (LS174 T异种移植物; no pretargeting antibody): 0.329 %ID/g
- 脑 (brain) uptake, individual animals (LS174 T异种移植物; no pretargeting antibody): 0.197 %ID/g

Compound: C-NETA-琥珀酰-D-Lys(HSG)-D-Tyr-D-Lys(HSG)-NH2 [IMP 467]
- decomposition of 18F-labelled peptide in serum ([3]; HLB-purified, human serum 37℃, 5 h): 没有可检测的分解
